We go through 25 compounds from patent US20250171414A1, “COMPOUND SERVING AS MASP-2 INHIBITOR, PHARMACEUTICAL COMPOSITION, PREPARATION METHOD THEREFOR, AND USE THEREOF” (WUHAN CREATERNA SCIENCE AND TECHNOLOGY CO., LTD., priority 2022, published 2025).

What is called IC50 is the concentration that inhibits the measured activity by half. Read a low IC50 as inhibition by little substance.

The experiment has as its system lectin pathway (MBL) in human serum. Put plainly: Inhibition of activity of lectin pathway (MBL) in human serum (WIESLAB Complement System MBL Pathway kit). The format is biochemical. The conditions noted are these: 1% human serum. The protocol: The inhibition of the activity of the lectin pathway (MBL) in human serum by compounds was detected using a WIESLAB® Complement System MBL Pathway kit (SVAR, COMPLMP320). Test compounds were each serially diluted in a buffer (Diluent MP), and 1% human serum was incubated with the diluted compound solution for 15 min at room temperature. 100 μL of the mixture was added to a microplate and incubated at 37° C. for 60 min. The liquid in the wells was discarded, and the microplate was washed three times with a washing solution. A Conjugate antibody solution was added at 100 μL/well, and the resulting mixture was incubated for 30 min at 25° C. The liquid in the wells was discarded, and the microplate was washed three times with a washing solution; a substrate solution was added at 100 μL/well, and the resulting mixture was incubated for 30 min at 25° C.; the terminator was added at 50 μL/well, and the absorbance at 405 nm was detected within 30 min by using a microplate reader.
In the case of `C[C@H](NC(=O)[C@H]1CC(c2cccc(F)c2)CCN1)C(=O)NC1CCc2nc(N)ccc21` (stereo in doubt) [Compound L039-IS-02, (2R,4S)-N-((2S)-1-((2-amino-6,7-dihydro-5H-cyclopenta[b]pyridin-5-yl)amino)-1-oxopropan-2-yl)-4-(3-fluorophenyl)piperidine-2-carboxamide], it took 2.36 nM to reach half-maximal inhibition (IC50).
In turn, `C[C@H](NC(=O)[C@H]1C[C@@H](c2cccc(OC(F)(F)F)c2)CCN1)C(=O)NC1CCc2nc(N)ccc21` (stereo partly drawn) [Compound L046-IS-02, (2R,4S)-N-((2S)-1-((2-amino-6,7-dihydro-5H-cyclopenta[b]pyridin-5-yl)amino)-1-oxopropan-2-yl)-4-(3-(trifluoromethoxy)phenyl)piperidine-2-carboxamide] registered an IC50 of 3.71 nM.
In the case of `C[C@H](NC(=O)[C@H]1C[C@@H](c2ccccc2)CCN1)C(=O)NC1CCc2nc(N)ccc21` (stereo partly drawn) [Compound L021-IS-01, (2R,4S)—N-((2S)-1-((2-amino-6,7-dihydro-5H-cyclopenta[b]pyridin-5-yl)amino)-1-oxopropan-2-yl)-4-phenylpiperidine-2-carboxamide] it was 0.26 nM; in that of `C[C@H](NC(=O)[C@@H]1C=C(c2ccc(F)c(Cl)c2)CCN1)C(=O)N[C@@H]1CCc2nc(N)ccc21` [Compound L072-IS-02, (S)-N-((S)-1-(((R)-2-amino-6,7-dihydro-5H-cyclopenta[b]pyridin-5-yl)amino)-1-oxopropan-2-yl)-4-(3-chloro-4-fluorophenyl)-1,2,5,6-tetrahydropyridine-2-carboxamide], 9.26 nM; in that of `Cc1cccc(C[C@@H]2CN[C@@H](C(=O)N[C@@H](C)C(=O)NC3CCc4nc(N)ccc43)C2)c1` (stereo partly drawn) [Compound L016, (2R,4S)—N-((2S)-1-((2-amino-6,7-dihydro-5H-cyclopenta[b]pyridin-5-yl)amino)-1-oxopropan-2-yl)-4-(3-methylbenzyl) pyrrolidine-2-carboxamide], 4.64 nM.
In the case of `C[C@H](NC(=O)C1CC(c2ccccc2)CCN1)C(=O)NC1CCc2nc(N)ccc21` (stereo partly drawn) [Compound L021, N-((2S)-1-((2-amino-6,7-dihydro-5H-cyclopenta[b]pyridin-5-yl)amino)-1-oxopropan-2-yl)-4-phenylpiperidine-2-carboxamide] it was 3.75 nM; in that of `C[C@H](NC(=O)[C@@H]1C=C(c2ccc(F)cc2C(F)F)CCN1)C(=O)N[C@@H]1CCc2nc(N)ccc21` [Compound L080-IS-02, (S)—N—((S)-1-(((R)-2-amino-6,7-dihydro-5H-cyclopenta[b]pyridin-5-yl)amino)-1-oxopropan-2-yl)-4-(2-(difluoromethyl)-4-fluorophenyl)-1,2,5,6-tetrahydropyridine-2-carboxamide], 2.87 nM.
In the case of `Cc1ccc(C[C@@H]2CN[C@@H](C(=O)N[C@@H](C)C(=O)NC3CCc4nc(N)ccc43)C2)cc1` (stereo partly drawn) [Compound L004, (2R,4S)—N-((2S)-1-((2-amino-6,7-dihydro-5H-cyclopenta[b]pyridin-5-yl)amino)-1-oxopropan-2-yl)-4-(4-methylbenzyl) pyrrolidine-2-carboxamide] it was 12.8 nM.
In turn, `Cc1cc(F)ccc1C1=C[C@@H](C(=O)N[C@@H](C)C(=O)N[C@@H]2CCc3nc(N)ccc32)NCC1` [Compound L074-IS-02, (S)-N-((S)-1-(((R)-2-amino-6,7-dihydro-5H-cyclopenta[b]pyridin-5-yl)amino)-1-oxopropan-2-yl)-4-(4-fluoro-2-methylphenyl)-1,2,5,6-tetrahydropyridine-2-carboxamide] had a concentration for half-maximal inhibition (IC50) of 2.79 nM.
In the case of `C[C@H](NC(=O)[C@@H]1C=C(c2ccc(F)c(C(F)(F)F)c2)CCN1)C(=O)N[C@@H]1CCc2nc(N)ccc21` [Compound L070-IS-02, (S)-N-((S)-1-(((R)-2-amino-6,7-dihydro-5H-cyclopenta[b]pyridin-5-yl)amino)-1-oxopropan-2-yl)-4-(4-fluoro-3-(trifluoromethyl)phenyl)-1,2,5,6-tetrahydropyridine-2-carboxamide] it was 17.6 nM.
In the case of `C[C@H](NC(=O)[C@H]1C[C@@H](c2cccc(F)c2F)CCN1)C(=O)NC1CCc2nc(N)ccc21` (stereo partly drawn) [Compound L048-IS-02, (2R,4S)-N-((2S)-1-((2-amino-6,7-dihydro-5H-cyclopenta[b]pyridin-5-yl)amino)-1-oxopropan-2-yl)-4-(2,3-difluorophenyl)piperidine-2-carboxamide] it was 6.08 nM; in that of `C[C@H](NC(=O)[C@H]1C[C@H](C2(c3ccccc3)CC2)CN1)C(=O)NC1CCc2nc(N)ccc21` (stereo partly drawn) [Compound L017, (2R,4R)—N-((2S)-1-((2-amino-6,7-dihydro-5H-cyclopenta[b]pyridin-5-yl)amino)-1-oxopropan-2-yl)-4-(1-phenylcyclopropyl) pyrrolidine-2-carboxamide], 6.96 nM.
In the case of `C[C@H](NC(=O)[C@H]1CN(Cc2ccccc2)CCN1)C(=O)NC1CCc2nc(N)ccc21` (stereo partly drawn) [Compound L024, (2R)—N-((2S)-1-((2-amino-6,7-dihydro-5H-cyclopenta[b]pyridin-5-yl)amino)-1-oxopropan-2-yl)-4-benzylpiperazine-2-carboxamide] it was 6.34 nM; in that of `C[C@H](NC(=O)[C@H]1C[C@H](Cc2nc3cc(Cl)ccc3s2)CN1)C(=O)NC1CCc2nc(N)ccc21` (stereo partly drawn) [Compound L013, (2R,4R)—N-((2S)-1-((2-amino-6,7-dihydro-5H-cyclopenta[b]pyridin-5-yl)amino)-1-oxopropan-2-yl)-4-((5-chlorobenzo[d]thiazol-2-yl)methyl) pyrrolidine-2-carboxamide], 6.62 nM; in that of `Nc1ccc2c(n1)CC[C@H]2NC(=O)[C@H]1[C@H]2C[C@H]2CN1C(=O)[C@H]1C[C@H](Cc2ccc(F)cc2)CN1` [Compound L055-IS-02, (1S,2R,5R)—N—((R)-2-amino-6,7-dihydro-5H-cyclopenta [b]pyridin-5-yl)-3-((2R,4S)-4-(4-fluorobenzyl)pyrrolidine-2-carbonyl)-3-azabicyclo[3.1.0]hexane-2-carboxamide], 7 nM.
In turn, `Nc1ccc2c(n1)CC[C@H]2NC(=O)[C@@H]1C[C@@H]2C[C@@H]2N1C(=O)[C@H]1C[C@H](Cc2ccc(F)cc2)CN1` [Compound L104-IS-02, (1S,3S,5S)—N—((R)-2-amino-6,7-dihydro-5H-cyclopenta [b]pyridin-5-yl)-2-((2R,4S)-4-(4-fluorobenzyl)pyrrolidine-2-carbonyl)-2-azabicyclo[3.1.0]hexane-3-carboxamide] returned an IC50 of 0.97 nM.
Consider `C[C@H](NC(=O)[C@@H]1C=C(c2ccc(F)cc2Cl)CCN1)C(=O)N[C@@H]1CCc2nc(N)ccc21` [Compound L075-IS-02, (S)-N-((S)-1-(((R)-2-amino-6,7-dihydro-5H-cyclopenta[b]pyridin-5-yl)amino)-1-oxopropan-2-yl)-4-(2-chloro-4-fluorophenyl)-1,2,5,6-tetrahydropyridine-2-carboxamide], for which the midpoint of inhibition, the IC50, lay at 4.89 nM. This IC50 is about 5-fold higher than that of the compound before.
In the case of `C[C@H](NC(=O)[C@H]1C[C@@H](c2ccc(F)cc2F)CCN1)C(=O)NC1CCc2nc(N)ccc21` (stereo partly drawn) [Compound L047-IS-02, (2R,4S)-N-((2S)-1-((2-amino-6,7-dihydro-5H-cyclopenta[b]pyridin-5-yl)amino)-1-oxopropan-2-yl)-4-(2,4-difluorophenyl)piperidine-2-carboxamide] it was 3.06 nM.
In the case of `Cc1cc(C2=C[C@@H](C(=O)N[C@@H](C)C(=O)N[C@@H]3CCc4nc(N)ccc43)NCC2)ccc1F` (single isomer, unassigned) [Compound L071-IS-02] it was 7.85 nM; in that of `C[C@H](NC(=O)[C@H]1C[C@@H](c2ccc(F)cc2)CCN1)C(=O)NC1CCc2nc(N)ccc21` (stereo partly drawn) [Compound L033-IS-02, (2R,4S)—N-((2S)-1-((2-amino-6,7-dihydro-5H-cyclopenta[b]pyridin-5-yl)amino)-1-oxopropan-2-yl)-4-(4-fluorophenyl) piperidine-2-carboxamide], 2.26 nM; in that of `Cc1cc(C[C@@H]2CN[C@@H](C(=O)N[C@@H](C)C(=O)NC3CCc4nc(N)ccc43)C2)ccn1` (stereo partly drawn) [Compound L011, (2R,4S)—N-((2S)-1-((2-amino-6,7-dihydro-5H-cyclopenta[b]pyridin-5-yl)amino)-1-oxopropan-2-yl)-4-((2-methylpyridin-4-yl)methyl) pyrrolidine-2-carboxamide], 7.55 nM.
Regarding `C[C@H](NC(=O)[C@@H]1C=C(c2ccc(F)c(C(F)F)c2)CCN1)C(=O)N[C@@H]1CCc2nc(N)ccc21` [Compound L078-IS-02, (S)—N—((S)-1-(((R)-2-amino-6,7-dihydro-5H-cyclopenta[b]pyridin-5-yl)amino)-1-oxopropan-2-yl)-4-(3-(difluoromethyl)-4-fluorophenyl)-1,2,5,6-tetrahydropyridine-2-carboxamide], half-maximal inhibition (IC50) was put at 16.3 nM. Against the preceding compound, the IC50 is about 2.2-fold higher.
In the case of `C[C@H](NC(=O)[C@H]1CN(c2cccc3ccccc23)CCN1)C(=O)NC1CCc2nc(N)ccc21` (stereo partly shown) [Compound L025] it was 5.52 nM.
Regarding `C[C@H](NC(=O)[C@@H]1C=C(c2ccc(F)cc2CF)CCN1)C(=O)N[C@@H]1CCc2nc(N)ccc21` [Compound L079-IS-02, (S)—N—((S)-1-(((R)-2-amino-6,7-dihydro-5H-cyclopenta[b]pyridin-5-yl)amino)-1-oxopropan-2-yl)-4-(4-fluoro-2-(fluoromethyl)phenyl)-1,2,5,6-tetrahydropyridine-2-carboxamide], half-maximal inhibition (IC50) was put at 2.9 nM.
Take `C[C@H](NC(=O)[C@H]1C[C@@H](c2ccc(F)c(F)c2)CCN1)C(=O)NC1CCc2nc(N)ccc21` (stereo partly drawn) [Compound L045-IS-02, (2R,4S)-N-((2S)-1-((2-amino-6,7-dihydro-5H-cyclopenta[b]pyridin-5-yl)amino)-1-oxopropan-2-yl)-4-(3,4-difluorophenyl)piperidine-2-carboxamide]: half-maximal inhibition (IC50) required 4.11 nM.
